# Values of other authors, collected in patent publication US20100113478A1, “INDOLONE MODULATORS OF 5-HT3 RECEPTOR” (AUSPEX PHARMACEUTICALS, INC., priority 2008, published 2010).
# Details: women compared with men
smiles,measurement,value
"Cc1[nH]cnc1CN1CCc2c(c3ccccc3n2C)C1=O [alosetron, 5-methyl-2-((5-methyl-1H-imidazol-4-yl)methyl)-2,3,4,5-tetrahydro-1H-pyrido[4,3-b]indol-1-one]",alosetron clearance lower in women than in men,30%
